Measurements from ChEMBL document CHEMBL5584313, “Design and Synthesis of 7-Oxabicyclo[2.2.1]heptane-2,3-dicarboxylic Acid Derivatives as PP5 Inhibitors To Reverse Temozolomide Resistance in Glioblastoma Multiforme” (J Med Chem, 2024).
Activity calls are given as the source filed them. The calls are words filed in the database; no cut-off is given here. Starred links: 1 amine or outer side, 2 acyl side, 3 side chain; linkers in the order of their positions; H or OH if unused. Positions of bridges follow the written chain, without caps; N, C: chain ends. Non-standard residues stand in square brackets, D forms with d. Residues, ends and D or L forms follow the SMILES beside them. Adda = CO[C@@H](Cc1ccccc1)[C@@H](C)/C=C(C)/C=C/[C@H](N[*:1])[C@H](C)C(=O)[*:2]; dAsp(3S-Me) = C[C@H](C(=O)[*:3])[C@@H](N[*:1])C(=O)[*:2]; d(γGlu) = O=C(O)[C@@H](CCC(=O)[*:2])N[*:1]; NMeDha = C=C(NC)C(=O)O

Legend:
[1] = Aqueous stability of compound assessed as compound remaining measured at 240 mins by HPLC assay; format: physicochemical; details: aqueous solution, read-out: Stability
[2] = Inhibition of bovine PP2A using [32P]-phosphohistone as substrate preincubated for 10 mins followed by substrate addition; parameters: species or system Bos taurus
[3] = Stability in mouse plasma assessed as half life measured upto 300 mins by LC-MS/MS analysis; format: ADME, cell-free
[4] = Cytotoxicity against HEK293T cells incubated for 48 hrs by CCK8 assay; format: toxicity, cell-based, HEK-293T; details: human
[5] = Inhibition of PP2A in human U-87 MG cell lysate using RRA(pT)VA as substrate; format: subcellular
[6] = test system: U-87 MG; assay: Induction of apoptosis in human U-87 MG cells assessed as S phase cells at 25 uM incubated for 24 hrs in presence of TMZ by propidium iodide staining based flow cytometry analysis (reference value: 29.4%); format: functional, U-87MG ATCC
[7] = test system: U-87 MG; assay: Induction of apoptosis in human U-87 MG cells assessed as G0/G1 phase cells at 5 uM incubated for 24 hrs by propidium iodide staining based flow cytometry analysis (reference value: 58.8%); format: functional, U-87MG ATCC
[8] = target: T1, Serine/threonine-protein phosphatase 5 (Homo sapiens, UniProt P53041); assay: Inhibition of human PPP5C (169 to 499 residues) expressed in Escherichia coli using [32P]-phosphohistone as substrate preincubated for 10 mins followed by substrate addition
T1 sequence (P53041 whole entry): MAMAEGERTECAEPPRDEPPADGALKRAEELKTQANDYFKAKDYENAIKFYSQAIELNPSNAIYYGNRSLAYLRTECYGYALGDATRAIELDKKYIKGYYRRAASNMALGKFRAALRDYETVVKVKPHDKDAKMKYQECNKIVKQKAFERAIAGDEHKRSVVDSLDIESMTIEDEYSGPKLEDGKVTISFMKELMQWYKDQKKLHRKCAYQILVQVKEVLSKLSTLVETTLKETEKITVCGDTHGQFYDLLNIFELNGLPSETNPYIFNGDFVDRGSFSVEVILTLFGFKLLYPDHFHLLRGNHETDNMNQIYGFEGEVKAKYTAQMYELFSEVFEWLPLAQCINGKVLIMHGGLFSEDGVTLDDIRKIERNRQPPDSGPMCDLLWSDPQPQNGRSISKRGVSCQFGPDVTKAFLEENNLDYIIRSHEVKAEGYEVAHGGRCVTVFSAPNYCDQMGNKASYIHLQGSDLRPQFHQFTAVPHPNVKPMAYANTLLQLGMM

[9] = Aqueous stability of compound assessed as compound remaining measured at 30 mins by HPLC assay; format: physicochemical; details: aqueous solution, read-out: Stability
[10] = test system: U-87 MG; assay: Antitumor activity against human U-87 MG cells xenografted in BALB/c nude mouse assessed as tumor growth inhibition at 3 mg/kg, po administered every other day for 18 days in presence of 40 mg/kg TMZ; format: functional, U-87MG ATCC; details: 432 h, time 18 day, read-out: TGI
[11] = test system: U-87MG ATCC; assay: Upregulation of p53 expression in human U-87 MG cells at 6.25 to 100 uM after 24 hrs by Western blotting analysis; format: functional, cell-based; details: dose 6.25-100 µM
[12] = Aqueous stability of compound assessed as compound remaining measured at 480 mins by HPLC assay; format: physicochemical; details: aqueous solution, read-out: Stability
[13] = species: Homo sapiens; assay: Selectivity ratio of IC50 for PP1 (unknown origin ) to IC50 for PP5 (unknown origin)
[14] = species: Homo sapiens; assay: Selectivity ratio of IC50 for PP2A (unknown origin ) to IC50 for PP5 (unknown origin)
[15] = Toxicity in BALB/c nude mouse xenografted with U-87 MG cells assessed as liver damage at 3 mg/kg, po administered every other day for 18 days in presence of 40 mg/kg TMZ by H and E staining based assay; format: organism-based; details: in vivo, 432 h, time 18 day
[16] = Stability of compound in water assessed as remaining compound after 24 hrs; format: physicochemical; details: read-out: Stability
[17] = test system: A549; assay: Cytotoxicity against human A549 cells incubated for 48 hrs by CCK8 assay; format: functional, cell-based; details: A549, 48 h
[18] = Aqueous stability of compound assessed as compound remaining measured at 60 mins by HPLC assay; format: physicochemical; details: aqueous solution, read-out: Stability
[19] = Toxicity in BALB/c nude mouse xenografted with U-87 MG cells assessed as kidney damage at 3 mg/kg, po administered every other day for 18 days in presence of 40 mg/kg TMZ by H and E staining based assay; format: organism-based; details: in vivo, 432 h, time 18 day
[20] = Toxicity in BALB/c nude mouse xenografted with U-87 MG cells assessed as kidney damage at 3 mg/kg, po administered every other day for 18 days by H and E staining based assay; format: organism-based; details: in vivo, 432 h, time 18 day
[21] = Aqueous stability of compound assessed as compound remaining measured at 10 mins by HPLC assay; format: physicochemical; details: aqueous solution, read-out: Stability
[22] = test system: U-87 MG; assay: Induction of apoptosis in human U-87 MG cells assessed as G2/M phase cells at 5 uM incubated for 24 hrs by propidium iodide staining based flow cytometry analysis (reference value: 11.9%); format: functional, U-87MG ATCC
[23] = test system: U-87 MG; assay: Induction of apoptosis in human U-87 MG cells assessed as G0/G1 phase cells at 25 uM incubated for 24 hrs in presence of TMZ by propidium iodide staining based flow cytometry analysis (reference value: 58.8%); format: functional, U-87MG ATCC
[24] = test system: U-87 MG; assay: Induction of apoptosis in human U-87 MG cells assessed as G2/M phase cells at 25 uM incubated for 24 hrs in presence of TMZ by propidium iodide staining based flow cytometry analysis (reference value: 11.9%); format: functional, U-87MG ATCC
[25] = test system: U-87 MG; assay: Induction of apoptosis in human U-87 MG cells assessed as S phase cells at 5 uM incubated for 24 hrs by propidium iodide staining based flow cytometry analysis (reference value: 29.4%); format: functional, U-87MG ATCC
[26] = test system: U-87 MG; assay: Antitumor activity against human U-87 MG cells xenografted in BALB/c nude mouse assessed as reduction in MGMT expression at 1.5 to 3 mg/kg, po measured after 4 hrs in presence of 40 mg/kg TMZ by Western blotting analysis; format: functional, organism-based; details: U-87MG ATCC, dose 1.5-3 mg/kg
[27] = test system: HCT-116; assay: Cytotoxicity against human HCT-116 cells incubated for 48 hrs by CCK8 assay; format: functional, cell-based; details: HCT-116, 48 h
[28] = test system: U-87MG ATCC; assay: Downregulation of cyclin D1 expression in human U-87 MG cells at 25 uM incubated for 24 hrs in presence TMZ by Western blotting analysis; format: functional, cell-based
[29] = Toxicity in BALB/c nude mouse xenografted with U-87 MG cells assessed as liver damage at 3 mg/kg, po administered every other day for 18 days by H and E staining based assay; format: organism-based; details: in vivo, 432 h, time 18 day
[30] = Cytotoxicity against human BEAS-2B incubated for 48 hrs by CCK8 assay; format: toxicity, cell-based; details: BEAS-2B cells
[31] = Cytotoxicity against HUVECs incubated for 48 hrs by CCK8 assay; format: toxicity, cell-based; details: human, HUVEC cells
[32] = test system: U-87 MG; assay: Cytotoxicity against human U-87 MG cells incubated for 48 hrs by CCK8 assay; format: functional, cell-based, U-87MG ATCC
[33] = Aqueous stability of compound assessed as compound remaining measured at 120 mins by HPLC assay; format: physicochemical; details: aqueous solution, read-out: Stability
[34] = Inhibition of PP2A (unknown origin)

O=C(O)[C@@H]1[C@H](C(=O)NC2CCCC2)[C@H]2CC[C@@H]1O2
remaining at 4 h [1]: 72.2%

O=C(O)[C@@H]1[C@H](C(=O)N2CCc3ccccc32)[C@H]2CC[C@@H]1O2
remaining at 4 h [1]: 52.8%

O=C(NC1CCCCC1)[C@@H]1[C@H](C(=O)O)[C@H]2CC[C@@H]1O2
remaining at 4 h [1]: 73.2%

CC1c2ccccc2CN1C(=O)[C@@H]1[C@H](C(=O)O)[C@H]2CC[C@@H]1O2 (some centres not stated)
remaining at 4 h [1]: 71.8%

O=CN1CCN(C(=O)[C@@H]2[C@H](C(=O)O)[C@H]3CC[C@@H]2O3)CC1
remaining at 4 h [1]: 80.3%

O=C(O)[C@@H]1[C@H](C(=O)N2CCN(c3ccccc3)CC2)[C@H]2CC[C@@H]1O2
remaining at 4 h [1]: 93%

O=C(O)[C@@H]1[C@H](C(=O)N2CC=CC2)[C@H]2CC[C@@H]1O2
remaining at 4 h [1]: 35.7%

CN1CCN(C(=O)[C@@H]2[C@H](C(=O)O)[C@H]3CC[C@@H]2O3)CC1
IC50 [2]: 0.009 µM | half-life [3]: 5.03 h | IC50 at 48 h [4]: 26.6 µM | IC50 [5]: 1 µM | Activity [6]: 11.8% | Activity [7]: 57.4% | IC50 [8]: 3 µM | remaining at 0.5 h [9]: 79% | inhibition in vivo at 3 mg/kg [10]: 46.2% | Activity [11]: inactive | remaining at 8 h [12]: 14% | Ratio IC50 [13]: 0.7 | Ratio IC50 [14]: 0.1 | Activity [15]: Toxic | remaining at 24 h [16]: 5.3% | IC50 [17]: 8.8 µM | remaining at 1 h [18]: 68% | Activity [19]: Toxic | Activity [20]: Toxic | remaining at 10 min [21]: 93% | Activity [22]: 14.4% | Activity [23]: 52.6% | Activity [24]: 22.9% | remaining at 4 h [1]: 45.6% | Activity [25]: 28.4% | Activity [26]: inactive | IC50 [27]: 10.1 µM | Activity [28]: inactive | Activity [29]: Toxic | IC50 at 48 h [30]: 3.5 µM | IC50 at 48 h [31]: 9.7 µM | IC50 [32]: 25.6 µM | remaining at 2 h [33]: 50%

C=C1C(=O)N[C@H](C)C(=O)N[C@@H](CC(C)C)C(=O)N[C@@H](C(=O)O)[C@H](C)C(=O)N[C@@H](CCCNC(=N)N)C(=O)N[C@@H](/C=C/C(C)=C/[C@H](C)[C@H](Cc2ccccc2)OC)[C@H](C)C(=O)N[C@@H](C(=O)O)CCC(=O)N1C [MICROCYSTIN-LR] (R[Adda][d(γGlu)][NMeDha][dA]L[dAsp(3S-Me)]-OH; lactam N-7)
IC50 [34]: 0.04 nM

C[C@@](O)(/C=C/[C@H]1CC=CC(=O)O1)[C@@H](C[C@@H](O)\C=C/C=C\C=C\CO)OP(=O)(O)O [FOSTRIECIN]
IC50 [34]: 1.5 nM
